PubChem BioAssay (NCI)
“And” between values parts separate entries of the source, which are not always exact repeats. Equal values may be shown once.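 Cultured in 96-well plates, cells were exposed to test compound for 48 hours across five concentrations. The concentration for 50% growth inhibition is given as GI50. At the TGI there is no net growth.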

Experiments:
Assay in all cases: NCI tumour cell line growth inhibition, 48 h
[1] = system: A498 renal
[2] = system: MALME-3M melanoma
[3] = system: LOX IMVI melanoma
[4] = system: UACC-62 melanoma
[5] = system: SN12C renal
[6] = system: ACHN renal
[7] = system: SK-OV-3 ovarian
[8] = system: SW-620 colon
[9] = system: HT29 colon
[10] = system: COLO 205 colon

SMILES	GI50 [1]	TGI [1]	GI50 [2]	TGI [2]	GI50 [3]	TGI [3]	GI50 [4]	TGI [4]	GI50 [5]	TGI [5]	GI50 [6]	TGI [6]	GI50 [7]	TGI [7]	GI50 [8]	TGI [8]	GI50 [9]	TGI [9]	GI50 [10]	TGI [10]
O=C(CN1CCN(CCCOc2c(-c3ccccc3)oc3ccccc3c2=O)CC1)Nc1ccc(Cl)cc1C(=O)c1ccccc1Cl	21.5 µM	81.8 µM	4 µM	8.91 µM	3.87 µM	14.4 µM	12.3 µM	26.3 µM	4.98 µM	18 µM	14.8 µM	> 100 µM	15.1 µM	54.2 µM	0.336 µM	> 100 µM	3.09 µM	> 100 µM	13.4 µM	30.2 µM
O=C(CNc1ccc2c(c1)C(=O)c1ccccc1C2=O)Nc1ccc2c(c1)C(=O)c1ccccc1C2=O	1.62 µM	3.16 µM	0.739 µM	2.36 µM	0.142 µM	0.317 µM	0.631 µM	1.95 µM	0.293 µM	1 µM	1.58 µM	3.01 µM	1.82 µM	6.99 µM	0.186 µM	0.371 µM	0.451 µM	1.69 µM	1.26 µM	2.94 µM
N#CC(C(=O)CCC(=O)C(C#N)c1ccccc1)c1ccccc1 (centres undefined)		> 100 µM		> 100 µM		> 100 µM		> 100 µM		> 100 µM		> 100 µM		> 100 µM		> 100 µM		> 100 µM		> 100 µM
CCOC(=O)c1[nH]c(Br)c(-c2ccc(Br)cc2)c1Br	0.288 µM	5.28 µM and 1.22 µM	0.46 µM	15.8 µM	0.641 µM	5.29 µM and 12.4 µM	0.362 µM		0.502 µM	4.75 µM	0.929 µM	3.63 µM and 8.45 µM	0.967 µM	6.28 µM		14 µM		1.32 µM and 1.62 µM		2.54 µM and 1.85 µM
COc1ncc(-c2ccc3nccc(-c4ccnnc4)c3c2)cc1NS(=O)(=O)c1ccc(F)cc1F	0.0015 µM	0.00826 µM	0.00473 µM and < 0.01 µM	0.114 µM and 0.0222 µM	0.00758 µM and < 0.0106 µM	1.12 µM and 1.26 µM	0.00217 µM and < 0.01 µM	0.019 µM and 0.0263 µM	0.0111 µM and < 0.01 µM	> 100 µM	0.0104 µM and < 0.0114 µM	> 74.3 µM	0.00188 µM and < 0.01 µM	0.0204 µM and 0.0377 µM	0.0151 µM and 0.0225 µM	> 4.47 µM and 1.92 µM	0.00325 µM and < 0.01 µM	> 10 µM and 4.25 µM	0.00561 µM and < 0.01 µM	0.542 µM and 0.257 µM
O=C(CC1(O)C(=O)Nc2c(Cl)ccc(Cl)c21)c1ccc2ccccc2c1 (centres undefined)		34.7 µM		25.1 µM		31.9 µM		10.7 µM		31.3 µM		26.3 µM		33.5 µM		12.5 µM		8.61 µM		28.7 µM
Clc1cc(Cc2cc(Cl)c(Cl)c3c2OCOC3)c2c(c1Cl)COCO2		80.4 µM		> 100 µM		> 100 µM		> 100 µM		> 100 µM		> 100 µM		64.4 µM		> 100 µM		> 100 µM		> 100 µM
O=C(/C=C/c1cccnc1)NCCCCC1CCCN(C(=O)c2ccccc2)C1 (centres undefined)	> 61.1 µM	> 100 µM	> 44.5 µM	> 100 µM	5.67 µM	> 100 µM	> 90.6 µM	> 100 µM	< 0.01 µM	> 100 µM	> 91 µM	> 100 µM	> 91.7 µM	> 100 µM	< 0.01 µM	> 100 µM	< 0.01 µM	> 100 µM	0.75 µM	> 100 µM
COc1ccccc1CCN=C1NC(=O)/C(=C/c2ccc3ncccc3c2)S1	3.45 µM	12.3 µM	7.44 µM	> 23 µM	3.15 µM	18.2 µM	6.1 µM	> 25 µM	6.93 µM	> 25 µM	5.98 µM	24.5 µM	5.67 µM	14.4 µM	1.32 µM	> 25 µM	2.47 µM	15.7 µM	2.86 µM	> 19.6 µM
CN(C(=O)C12C3C4C1C1C4(C(=O)C45C6C7C4C4C5C6C74C)C3C12C)C(C)(C)C (centres undefined)		> 100 µM		> 100 µM		> 100 µM		> 100 µM		> 100 µM		> 100 µM		> 100 µM		> 100 µM		35.1 µM		> 100 µM
CC1(c2cccc3ccccc23)OC(=O)c2ccccc21 (centres undefined)		68.3 µM		53.4 µM		42.8 µM		25.6 µM		67.8 µM		70.9 µM		75.8 µM		68.2 µM		53.8 µM		29.8 µM
CCOC(=O)N1CCc2cc(OC)c(OC)c3c2c1cc1cc(OC)c(OC)cc13		14.7 µM		51.5 µM		52.3 µM		63 µM		> 100 µM		> 95 µM		> 51.1 µM		81.1 µM		21.6 µM		9.06 µM
COc1cc(C)c(Cl)cc1C1=NN(c2ccc(S(N)(=O)=O)cc2)C(/C=C/c2ccccc2)C1 (centres undefined)	2.67 µM	5.71 µM	2.68 µM	9.98 µM	1.67 µM	3.21 µM	3.77 µM	19.4 µM	2.68 µM	7.03 µM	3.2 µM	13.3 µM	3.74 µM	16.2 µM	4.09 µM	20.7 µM	1.8 µM	4.07 µM	1.76 µM	3.33 µM
O=C(c1ccco1)c1nc2cc(Cl)ccc2[n+]([O-])c1C(F)(F)F	> 100 µM	> 100 µM	47.9 µM	> 100 µM	48.4 µM	> 100 µM	40.7 µM	> 100 µM	91 µM	> 100 µM	51.2 µM	> 100 µM	> 100 µM	> 100 µM	39.1 µM	> 100 µM	52.9 µM	> 100 µM	> 100 µM	> 100 µM
COc1cc2c3c(n(CCCN)c(=O)c2cc1OC)-c1cc2c(cc1/C3=C\CCN)OCO2	35.9 µM	97.2 µM	1.1 µM	4.26 µM	1.7 µM		1.75 µM	4.98 µM	0.0627 µM	3.81 µM	5.81 µM	45 µM	6 µM	44.2 µM	3.56 µM	> 66.2 µM	0.373 µM	10.6 µM	4.34 µM	33.5 µM
O=C1NC(=O)C2C(=O)NC(=O)C1C2(c1ccccc1)c1cc[nH]c1 (centres undefined)		> 100 µM		> 100 µM		> 100 µM		> 100 µM		> 100 µM		> 100 µM		> 100 µM		> 100 µM		> 100 µM		> 100 µM
COc1ccc(-n2nnnc2-c2c[nH]c3c(F)cc(F)cc23)cc1	36.5 µM	> 100 µM	> 100 µM	> 100 µM	86.6 µM	> 100 µM	> 100 µM	> 100 µM	86.3 µM	> 100 µM	> 100 µM	> 100 µM	34.7 µM	> 100 µM	> 100 µM	> 100 µM	> 100 µM	> 100 µM	> 100 µM	> 100 µM
Cn1c(/C=C(\C#N)c2ccccc2)nc2c(N3CCOCC3)nc(Cl)nc21	1.51 µM	2.87 µM	1.45 µM	2.86 µM	0.324 µM	1.25 µM	1.19 µM	2.52 µM	1.12 µM	2.48 µM	0.458 µM	1.59 µM	4.54 µM	16.2 µM	0.413 µM	1.51 µM	0.386 µM	1.47 µM	1.34 µM	2.93 µM
C=C1C(=O)O[C@H]2[C@H]1CC/C(Cn1cc(-c3cc(C(F)(F)F)cc(C(F)(F)F)c3)nn1)=C\CC[C@@]1(C)O[C@@H]21	0.437 µM	1.71 µM	0.521 µM	2.16 µM	0.156 µM	0.298 µM	0.344 µM	1.38 µM	0.702 µM	2.38 µM	0.16 µM	0.325 µM	1.86 µM	3.43 µM	0.19 µM	0.399 µM	0.19 µM	0.486 µM	0.141 µM	0.364 µM
CC(=O)[C@@]1(O)CC[C@H]2[C@@H]3C[C@H](C)C4=CC(=O)CC[C@]4(C)[C@H]3[C@@H](O)C[C@@]21C		> 100 µM		> 100 µM		> 100 µM		> 100 µM		> 100 µM		> 100 µM		> 100 µM		> 100 µM		> 100 µM		> 100 µM
CC1(C)N=C(N)N=C(N)N1c1ccc(OCCCCOc2ccc(S(=O)(=O)F)cc2)c(Cl)c1	1.1 µM	19.9 µM	2.38 µM	37.7 µM	0.0761 µM	14.3 µM	0.0534 µM	18 µM	0.0575 µM	15.2 µM	1.68 µM	> 100 µM	5.88 µM	24.9 µM	0.0379 µM	14 µM	0.0519 µM	13.4 µM	0.137 µM	15.5 µM
N[C@@H]1CCCC[C@H]1N.O=C([O-])C(=O)[O-].[Pt+4]	4.85 µM	32.7 µM	3.22 µM	26.6 µM	1.13 µM	> 100 µM	2.2 µM	23.5 µM	2.56 µM	> 100 µM	2.15 µM	45.3 µM	> 66.2 µM	> 100 µM	0.0468 µM	> 83.7 µM	0.175 µM	> 8.25 µM	7.73 µM	> 74.8 µM
N#Cc1nc2c(S(=O)(=O)c3ccccc3)c(N)n(Cc3cccnc3)c2nc1C#N	17.2 µM	55.5 µM	3.7 µM	27.3 µM	25.8 µM	> 100 µM	20.7 µM	> 100 µM	26.6 µM	> 100 µM	80.7 µM	> 100 µM	18.8 µM	67.5 µM	> 100 µM	> 100 µM	> 100 µM	> 100 µM	> 100 µM	> 100 µM
Cc1ccccc1N=Nc1ccc(NC(=O)c2ccnn2C)c(C)c1	13.2 µM	42.6 µM	14.5 µM	> 100 µM	72.2 µM	> 100 µM	97.2 µM	> 100 µM	97.1 µM	> 100 µM	23.9 µM	> 100 µM	24 µM	> 100 µM	> 100 µM	> 100 µM	> 100 µM	> 100 µM	> 100 µM	> 100 µM
N#Cc1c(NN)nc(NN)c(C#N)c1-c1ccccc1		> 100 µM		> 100 µM		> 100 µM		> 100 µM		> 100 µM		> 100 µM		> 100 µM		> 100 µM		> 100 µM		> 100 µM
N/C(=C\c1ccc(OCc2ccccc2)c(OCc2ccccc2)c1[N+](=O)[O-])C(=O)O		> 100 µM		> 100 µM		> 100 µM		> 100 µM		> 100 µM		> 100 µM		> 100 µM		> 100 µM		> 100 µM		> 100 µM
COc1ccc(/C=C\c2cc(OC)c(OC)c(OC)c2)cc1OC(=O)c1cccc(Cn2cc(CCOC(=O)[C@H](N)Cc3cn(C)c4ccccc34)nn2)c1	< 0.01 µM		0.081 µM	25.6 µM	< 0.01 µM	14.2 µM	< 0.01 µM	24.2 µM	< 0.01 µM	> 100 µM	< 0.01 µM	> 60.7 µM	0.455 µM	> 100 µM	< 0.01 µM	> 100 µM	0.379 µM	> 20.9 µM	0.35 µM	1.55 µM
CCCCCCCCCCCCCC(=O)CC(=O)c1c(O)cccc1O		> 100 µM		92 µM		36.3 µM		> 100 µM		> 100 µM		74.5 µM		> 100 µM		50.2 µM		> 100 µM		55.1 µM
Nc1ncnc2c1nc(Cl)n2C1OC2COP(=O)(O)OC2C1O (centres undefined)		> 300 µM		> 300 µM		> 300 µM		> 300 µM		> 300 µM		> 300 µM		> 300 µM		> 300 µM		> 300 µM		> 300 µM
